Legend:
[1] = test system: H4 acetylation in human H460 tumors; experiment: H4Ac immunoblot analysis of H460 tumors in nude mice; format: in vivo, nude mice (Balb/c); conditions: 100 mg/kg oral, immunoblot normalized to total histones (FIG. 5B)
Protocol: FIG. 5 Induction of MT3 and p21 in implanted human NSCLC H460 tumors in vivo in nude mice. Nude mice (Balb/c) bearing human H460 tumors were treated with 100 mg/kg MGCD0103 or 0.5% HEC (Vehicle) by oral administration. After 6 h or 24 h, three mice from each group were sacrificed, their tumors harvested and analyzed. Panel A: p21 and MT3 RNA levels quantified by conventional semi-quantitative PCR, normalized to β-actin. Panel B: H4Ac level detected by immunoblot analysis, normalized to total histones.
Human non-small cell lung carcinoma NSCLC-H460 cells (2 million) were injected subcutaneously in the animal flank and allowed to form solid tumors. Tumor fragments were passaged in animals for a minimum of three times before their use. Tumor fragments (about 30 mg) were implanted subcutaneously through a small surgical incision under general anesthesia to Balb/cA female nude mice (6-8 weeks old). Recipient animals were treated with either vehicle (0.1 N HCl) or MGCD0103 (2HBr salt, in 0.1 N HCl) 100 mg/kg orally. Tumors were harvested after one dose of either 6 hour or 24 hours post administration of vehicle or MGCD0103. Each experimental group contained 3 animals. Tumor tissues were deposited in RNAlater (Qiagen, Missisauga Ontario) for total RNA extraction.

histone H3 acetylation = experiment: Histone acetylation of nuclear extracts from white blood cells; format: in vivo, human; conditions: AML Patient A with clinical response (FIG. 9)
Protocol: Human white peripheral cells were resuspended in 50 ul cold lysis buffer (10 mM Tris-HCl pH8.0, 1.5 mM MgCl2, 5 mM KCl, 0.5% NP-40, 5 mM Na butyrate plus protease inhibitors) and incubated on ice for 10 min. Cells were centrifuged at […] in an IEC Micromax centrifuge (Fisher Scientific Ltd., Nepean, Ontario) at 4° C. for 10-15 min and nuclei collected. Nuclei were washed with 50 ul lysis buffer by centrifugation at 2000 rpm at 4° C. for 10-15 min. Nuclei were resuspended in 35 ul ice cold Nuclear Lysis buffer (50 mM HEPES pH7.5, 500 mM NaCl, 1% NP-40, 1 mM EDTA, 10% glycerol, 5 mM NaButyrate and protease inhibitors) and sonicated 10 seconds using a VirSonic 300 sonicator (VirTis, Gardiner, N.Y.). Lysed nuclei were centrifuged at 15000 rpm at 4° C. for 5 min and supernatant collected for ELISA.
Black plates were coated with 50 ul of diluted anti-Histone antibodies (H11-4, Chemicon, Temecula, Calif.) (1:1000 in TBS) and incubated at ambient temperature for 2 hours. Plates were washed twice with 50 ul of PBS and blocked with 1% BSA+0.1% TritonX-100 in PBS (50 ul) for 45 minutes. […] Fluoroscence development was allowed for 60 minutes in foil and plates were read on a fluorometer (Gemini XS, Molecular Devices, Sunnyvale, Calif.) at Excitation at 550 nm and emission at 610 nm with a cutoff of 590 nm (Auto PMT, 15 reads/well). Data were analyzed using Excel.

SMILES: Nc1ccccc1NC(=O)c1ccc(CNc2nccc(-c3cccnc3)n2)cc1 [MGCD0103]
- H4 acetylation in tumors [1]: detectable only after 6 h of treatment
- induction of histone H3 acetylation in peripheral white cells (histone H3 acetylation): induction
